Where two headings read alike, the source gives them in different places. Values belong to the molecule of their own block, whether it stands above or below them.
Columns and labels:
Test in all cases: biochemical
Design in all cases: Eurofins DiscoverX kinase panel, competitive binding assay at 1 uM, percent of DMSO control
Settings in all cases: competitive binding, percent of DMSO control
EPHB3 = target: T1, EPHB3 (Homo sapiens, UniProt P54753)
T1 sequence (P54753 1-998): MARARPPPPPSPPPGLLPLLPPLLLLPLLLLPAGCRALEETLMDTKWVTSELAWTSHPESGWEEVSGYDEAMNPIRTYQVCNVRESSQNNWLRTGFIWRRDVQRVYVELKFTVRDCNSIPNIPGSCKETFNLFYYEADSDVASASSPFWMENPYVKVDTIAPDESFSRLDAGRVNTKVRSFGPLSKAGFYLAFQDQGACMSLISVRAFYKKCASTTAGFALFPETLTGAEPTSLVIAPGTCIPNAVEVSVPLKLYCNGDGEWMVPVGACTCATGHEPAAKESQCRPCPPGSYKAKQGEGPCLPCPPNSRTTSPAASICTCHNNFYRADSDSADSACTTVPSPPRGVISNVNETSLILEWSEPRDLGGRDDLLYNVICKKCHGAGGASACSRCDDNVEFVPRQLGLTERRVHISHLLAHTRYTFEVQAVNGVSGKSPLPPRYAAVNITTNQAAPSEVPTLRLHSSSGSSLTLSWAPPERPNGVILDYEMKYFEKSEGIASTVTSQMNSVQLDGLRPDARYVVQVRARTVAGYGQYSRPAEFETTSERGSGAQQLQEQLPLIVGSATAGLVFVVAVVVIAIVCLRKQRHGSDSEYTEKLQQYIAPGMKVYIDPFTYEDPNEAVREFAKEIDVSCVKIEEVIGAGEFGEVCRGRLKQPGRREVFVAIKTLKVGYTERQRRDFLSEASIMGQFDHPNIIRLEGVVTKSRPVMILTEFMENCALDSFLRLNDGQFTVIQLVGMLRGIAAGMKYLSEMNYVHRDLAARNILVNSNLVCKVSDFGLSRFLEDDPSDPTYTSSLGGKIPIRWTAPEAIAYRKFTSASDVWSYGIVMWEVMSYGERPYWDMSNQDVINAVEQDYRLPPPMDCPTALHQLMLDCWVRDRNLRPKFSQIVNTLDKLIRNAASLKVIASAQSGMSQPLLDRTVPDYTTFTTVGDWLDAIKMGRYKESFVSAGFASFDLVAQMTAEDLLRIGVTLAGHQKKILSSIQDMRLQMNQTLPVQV
In short: (§1)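 Single-point profiling at 1 µM compound in a competition-binding format against 96 kinases, read out as POC relative to control; n = 1.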

IRAK 4 = target: T2, IRAK 4 (Homo sapiens, UniProt Q9NWZ3)
T2 construct: gene IRAK4
T2 sequence (Q9NWZ3 1-460): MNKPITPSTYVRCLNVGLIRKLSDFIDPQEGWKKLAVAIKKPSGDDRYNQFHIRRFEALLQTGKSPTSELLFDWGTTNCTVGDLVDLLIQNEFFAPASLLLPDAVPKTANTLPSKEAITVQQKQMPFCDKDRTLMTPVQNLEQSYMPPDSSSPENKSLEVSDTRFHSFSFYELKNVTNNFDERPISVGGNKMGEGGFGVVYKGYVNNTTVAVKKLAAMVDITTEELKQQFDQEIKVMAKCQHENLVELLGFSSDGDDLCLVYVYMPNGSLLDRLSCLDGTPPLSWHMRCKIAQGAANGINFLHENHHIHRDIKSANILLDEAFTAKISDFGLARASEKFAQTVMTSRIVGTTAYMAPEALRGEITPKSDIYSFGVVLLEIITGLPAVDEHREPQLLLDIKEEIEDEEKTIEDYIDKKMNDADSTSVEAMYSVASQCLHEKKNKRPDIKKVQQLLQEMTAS
In short: as §1

PKB α = target: T3, PKB α (Homo sapiens, UniProt P31749)
T3 construct: gene AKT1
T3 sequence (P31749 whole entry): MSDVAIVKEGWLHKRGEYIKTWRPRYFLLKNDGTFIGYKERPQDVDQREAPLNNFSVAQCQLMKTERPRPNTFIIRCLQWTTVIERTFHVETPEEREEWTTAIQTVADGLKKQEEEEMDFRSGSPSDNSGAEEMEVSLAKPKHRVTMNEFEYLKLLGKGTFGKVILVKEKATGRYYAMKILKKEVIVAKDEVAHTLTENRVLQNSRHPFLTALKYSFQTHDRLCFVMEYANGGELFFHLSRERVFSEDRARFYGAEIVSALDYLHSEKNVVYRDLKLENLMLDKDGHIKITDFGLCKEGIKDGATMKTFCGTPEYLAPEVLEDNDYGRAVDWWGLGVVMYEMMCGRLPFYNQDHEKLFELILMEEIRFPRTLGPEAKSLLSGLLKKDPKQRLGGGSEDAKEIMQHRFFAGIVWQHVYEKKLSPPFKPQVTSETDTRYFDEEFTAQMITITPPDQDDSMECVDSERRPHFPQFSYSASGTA
In short: as §1

[1] = read-out: Kinome Profiling performed by Eurofins DiscoverX / AM-1882, 1.0 µM / POC
[2] = read-out: Kinome Profiling performed by Eurofins DiscoverX / AM-5308, 1.0 µM / POC
[3] = read-out: Kinome Profiling performed by Eurofins DiscoverX / AM-0277, 1.0 µM / POC

remaining activity at 1 µM (EPHB3; [1]): 98% | remaining activity at 1 µM (IRAK 4; [1]): 80% | remaining activity at 1 µM (PKB α; [1]): 100%
SMILES: CC(C)(C)NS(=O)(=O)c1cccc(NC(=O)c2ccc(S(=O)(=O)NC(C)(C)C)cc2N2CCC3(CC2)CC3)c1 [AM-1882]

remaining activity at 1 µM (EPHB3; [2]): 44% | remaining activity at 1 µM (IRAK 4; [2]): 95.5% | remaining activity at 1 µM (PKB α; [2]): 100%
SMILES: C[C@@H]1CN(c2cccc(NC(=O)c3ccc(NS(=O)(=O)CCO)cc3N3CCC4(CC3)CC4)n2)CCO1 [AM-5308]

remaining activity at 1 µM (EPHB3; [3]): 87% | remaining activity at 1 µM (IRAK 4; [3]): 100% | remaining activity at 1 µM (PKB α; [3]): 94%
SMILES: CC(C)(CO)Nc1ccc(C(=O)Nc2cccc(S(=O)(=O)C3CCCC3)c2)c(N2CCC3(CC2)CC3)n1 [AM-0277]
